One experiment addresses T1, PI3Kδ (p110δ/p85α) (Homo sapiens, UniProt O00329).
T1 construct: purchased Millipore (Bedford, Mass.)
Kind of experiment: PI3Kδ scintillation proximity assay. Format: biochemical. Particulars: separated isomer. In outline:
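IC50 was fitted to percent control activity against log concentration, from scintillation proximity counting of 33P-labelled lipid product captured on WGA beads after an EDTA quench. Reactions ran 210 minutes at room temperature: 4 nM PI3Kδ (p110δ/p85α), 20 μM PIP2, 20 μM ATP, pH 6.7 MOPS buffer, 0.5% DMSO.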
(In a scintillation proximity assay essentially only radioactivity close to the scintillant gives light.)

Experiment [1] has as its system Pfeiffer cell line (diffuse large B cell lymphoma). As to the kind of experiment: Pfeiffer cell proliferation assay. Format: cell-based. Particulars: Homo sapiens, Pfeiffer. On the procedure:
Pfeiffer cell line (diffuse large B cell lymphoma) was purchased from ATCC (Manassas, Va.) and maintained in the culture medium recommended (RPMI and 10% FBS). To measure the anti-proliferation activity of the compounds, the Pfeiffer cells were plated with the culture medium (2×10^3 cells/well/per 200 μl) into 96-well ultra-low binding plates (Corning, Corning, N.Y.), in the presence or absence of a concentration range of test compounds. […]

T1 sequence (O00329 whole entry): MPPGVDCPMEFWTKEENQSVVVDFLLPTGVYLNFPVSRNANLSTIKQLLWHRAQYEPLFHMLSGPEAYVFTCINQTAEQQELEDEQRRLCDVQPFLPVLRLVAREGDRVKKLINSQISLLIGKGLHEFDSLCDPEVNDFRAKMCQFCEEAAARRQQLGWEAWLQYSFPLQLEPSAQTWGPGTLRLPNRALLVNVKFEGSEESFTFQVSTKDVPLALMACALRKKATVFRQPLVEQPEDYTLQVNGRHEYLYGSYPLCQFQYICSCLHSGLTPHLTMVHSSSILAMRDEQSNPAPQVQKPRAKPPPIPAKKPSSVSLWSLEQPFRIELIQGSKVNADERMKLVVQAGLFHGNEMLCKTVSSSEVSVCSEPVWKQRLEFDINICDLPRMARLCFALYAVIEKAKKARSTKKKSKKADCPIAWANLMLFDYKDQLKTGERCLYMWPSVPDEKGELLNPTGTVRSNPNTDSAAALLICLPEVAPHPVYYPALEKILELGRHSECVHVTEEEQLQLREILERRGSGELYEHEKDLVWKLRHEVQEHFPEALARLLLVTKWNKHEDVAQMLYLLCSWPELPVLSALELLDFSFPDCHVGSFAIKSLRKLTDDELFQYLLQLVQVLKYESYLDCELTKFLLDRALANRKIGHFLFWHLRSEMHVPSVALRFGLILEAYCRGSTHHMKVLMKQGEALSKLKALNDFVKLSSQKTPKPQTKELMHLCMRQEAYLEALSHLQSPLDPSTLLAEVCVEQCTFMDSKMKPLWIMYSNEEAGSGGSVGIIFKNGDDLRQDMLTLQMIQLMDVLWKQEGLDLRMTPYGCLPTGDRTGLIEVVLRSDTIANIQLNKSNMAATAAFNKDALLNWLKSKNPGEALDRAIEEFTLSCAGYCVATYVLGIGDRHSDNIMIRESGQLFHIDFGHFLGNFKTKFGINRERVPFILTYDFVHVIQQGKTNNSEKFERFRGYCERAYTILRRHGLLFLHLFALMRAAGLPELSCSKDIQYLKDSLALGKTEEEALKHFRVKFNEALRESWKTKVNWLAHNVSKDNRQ
T1 sequence (P27986 whole entry partner): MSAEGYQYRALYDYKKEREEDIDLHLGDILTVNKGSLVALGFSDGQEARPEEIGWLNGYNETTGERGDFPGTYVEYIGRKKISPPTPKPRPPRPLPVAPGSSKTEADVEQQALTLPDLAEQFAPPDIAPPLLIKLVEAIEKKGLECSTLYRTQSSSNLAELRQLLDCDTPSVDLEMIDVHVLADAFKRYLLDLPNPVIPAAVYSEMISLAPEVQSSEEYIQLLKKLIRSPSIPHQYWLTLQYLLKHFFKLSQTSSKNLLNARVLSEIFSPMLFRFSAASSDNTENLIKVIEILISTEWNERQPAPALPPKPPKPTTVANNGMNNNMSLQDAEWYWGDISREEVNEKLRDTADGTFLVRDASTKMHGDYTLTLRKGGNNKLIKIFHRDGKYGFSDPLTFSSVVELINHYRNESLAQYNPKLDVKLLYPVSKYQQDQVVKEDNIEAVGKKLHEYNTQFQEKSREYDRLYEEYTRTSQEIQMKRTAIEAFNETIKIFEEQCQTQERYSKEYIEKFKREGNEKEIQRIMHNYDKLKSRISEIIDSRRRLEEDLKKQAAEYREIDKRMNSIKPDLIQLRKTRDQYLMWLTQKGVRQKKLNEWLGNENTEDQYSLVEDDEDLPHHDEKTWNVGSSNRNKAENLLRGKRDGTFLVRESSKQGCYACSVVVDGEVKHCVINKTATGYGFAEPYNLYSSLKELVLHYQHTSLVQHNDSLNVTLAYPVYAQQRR

Consider `CC(Nc1ncnc2[nH]cnc12)c1cc(Cl)c2cccnc2c1N1CCCC(CO)C1` (stereo not shown) [Example 63, (1-{5-Chloro-7-[1-(9H-purin-6-ylamino)ethyl]quinolin-8-yl]piperidin-3-yl)methanol tris(trifluoroacetate)], for which the IC50 at PI3Kδ (p110δ/p85α) (1st peak) is 100 to 250 nM; against PI3Kδ (p110δ/p85α) (2nd peak), 100 to 250 nM; in experiment [1] (first of two isolated isomers), more than 1000 nM; in experiment [1] (second of two isolated isomers), more than 1000 nM.

Usually IC50 stands for the concentration that inhibits the measured activity by half.
